Source: PubChem BioAssay (NCI)
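1) Cells in 96-well plates. 2) Compound, 48 h, 5 concentrations. 3) Linear interpolation between surrounding doses. 4) Unreached endpoint = highest concentration. Here, GI50 denotes the concentration required for 50% inhibition of growth. TGI denotes the concentration required for complete inhibition of growth.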

Legend:
Assay in all cases: NCI-60 cell line screen, 48 h
786-0 renal = test system: 786-0 renal
A498 renal = test system: A498 renal
A549 NSCLC = test system: A549 NSCLC
ACHN renal = test system: ACHN renal
BT-549 breast = test system: BT-549 breast
CAKI-1 renal = test system: CAKI-1 renal
CCRF-CEM leukemia = test system: CCRF-CEM leukemia
COLO 205 colon = test system: COLO 205 colon
DU-145 prostate = test system: DU-145 prostate
EKVX NSCLC = test system: EKVX NSCLC
HCC-2998 colon = test system: HCC-2998 colon
HCT-116 colon = test system: HCT-116 colon
HCT-15 colon = test system: HCT-15 colon
HL-60(TB) leukemia = test system: HL-60(TB) leukemia
HOP-62 NSCLC = test system: HOP-62 NSCLC
HOP-92 NSCLC = test system: HOP-92 NSCLC
HS 578T breast = test system: HS 578T breast
HT29 colon = test system: HT29 colon
IGROV1 ovarian = test system: IGROV1 ovarian
K-562 leukemia = test system: K-562 leukemia
KM12 colon = test system: KM12 colon
LOX IMVI melanoma = test system: LOX IMVI melanoma
M14 melanoma = test system: M14 melanoma
MALME-3M melanoma = test system: MALME-3M melanoma
MCF7 breast = test system: MCF7 breast
MDA-MB-231 breast = test system: MDA-MB-231 breast
MDA-MB-435 = test system: MDA-MB-435
MOLT-4 leukemia = test system: MOLT-4 leukemia
NCI-H226 lung = test system: NCI-H226 lung
NCI-H23 lung = test system: NCI-H23 lung
NCI-H460 lung = test system: NCI-H460 lung
NCI-H522 lung = test system: NCI-H522 lung
NCI/ADR-RES ovarian = test system: NCI/ADR-RES ovarian
OVCAR-3 ovarian = test system: OVCAR-3 ovarian
OVCAR-4 ovarian = test system: OVCAR-4 ovarian
OVCAR-5 ovarian = test system: OVCAR-5 ovarian
OVCAR-8 ovarian = test system: OVCAR-8 ovarian
PC-3 prostate = test system: PC-3 prostate
RPMI-8226 leukemia = test system: RPMI-8226 leukemia
RXF 393 renal = test system: RXF 393 renal
SF-268 CNS = test system: SF-268 CNS
SF-295 CNS = test system: SF-295 CNS
SF-539 CNS = test system: SF-539 CNS
SK-MEL-2 melanoma = test system: SK-MEL-2 melanoma
SK-MEL-28 melanoma = test system: SK-MEL-28 melanoma
SK-MEL-5 melanoma = test system: SK-MEL-5 melanoma
SK-OV-3 ovarian = test system: SK-OV-3 ovarian
SN12C renal = test system: SN12C renal
SNB-19 CNS = test system: SNB-19 CNS
SNB-75 CNS = test system: SNB-75 CNS
SR leukemia = test system: SR leukemia
SW-620 colon = test system: SW-620 colon
T-47D breast = test system: T-47D breast
TK-10 renal = test system: TK-10 renal
U251 CNS = test system: U251 CNS
UACC-257 melanoma = test system: UACC-257 melanoma
UACC-62 melanoma = test system: UACC-62 melanoma
UO-31 renal = test system: UO-31 renal

`Cc1cc(Oc2ccccc2)ccc1Nc1ncnc2ccc(-c3cnc(Cl)c(NS(C)(=O)=O)c3)cc12` gave a GI50 (786-0 renal) of 2230 nM, a TGI (786-0 renal) of 14 µM and a GI50 (A498 renal) of 1380 nM. The TGI (A498 renal) was 3.97 µM, the GI50 (A549 NSCLC) was 2030 nM and the TGI (A549 NSCLC) was 6.16 µM. For the same molecule, the GI50 (ACHN renal) was 2450 nM, the TGI (ACHN renal) was 15.5 µM and the GI50 (BT-549 breast) was 1160 nM. For the same molecule, the TGI (BT-549 breast) was 4.5 µM, the GI50 (CAKI-1 renal) was 1040 nM and the TGI (CAKI-1 renal) was 5.98 µM. The GI50 (CCRF-CEM leukemia) was 1320 nM, the TGI (CCRF-CEM leukemia) was 15.6 µM and the GI50 (COLO 205 colon) was 1450 nM. For the same molecule, the TGI (COLO 205 colon) was 3.78 µM, the GI50 (DU-145 prostate) was 2040 nM and the TGI (DU-145 prostate) was 12.1 µM. For the same molecule, the GI50 (EKVX NSCLC) was 1490 nM, the TGI (EKVX NSCLC) was 10.6 µM and the GI50 (HCC-2998 colon) was 1580 nM. It also gave a TGI (HCC-2998 colon) of 3.75 µM, a GI50 (HCT-116 colon) of 2510 nM and a TGI (HCT-116 colon) of 13.3 µM. For the same molecule, the GI50 (HCT-15 colon) was 1730 nM, the TGI (HCT-15 colon) was 10.7 µM and the GI50 (HL-60(TB) leukemia) was 1550 nM. The TGI (HL-60(TB) leukemia) was 13.7 µM, the GI50 (HOP-62 NSCLC) was 2840 nM and the TGI (HOP-62 NSCLC) was 18.3 µM. The GI50 (HOP-92 NSCLC) was 246 nM, the TGI (HOP-92 NSCLC) was 1380 nM and the GI50 (HS 578T breast) was 587 nM. The TGI (HS 578T breast) was 6.81 µM, the GI50 (HT29 colon) was 1500 nM and the TGI (HT29 colon) was 12.1 µM. For the same molecule, the GI50 (IGROV1 ovarian) was 227 nM, the TGI (IGROV1 ovarian) was 1130 nM and the GI50 (K-562 leukemia) was 3.58 µM. The TGI (K-562 leukemia) was over 100 µM, the GI50 (KM12 colon) was 2170 nM and the TGI (KM12 colon) was 7.43 µM. The GI50 (LOX IMVI melanoma) was 964 nM, the TGI (LOX IMVI melanoma) was 4 µM and the GI50 (M14 melanoma) was 2040 nM. It also gave a TGI (M14 melanoma) of 12.9 µM, a GI50 (MALME-3M melanoma) of 612 nM and a TGI (MALME-3M melanoma) of 3.79 µM. It also gave a GI50 (MCF7 breast) of 282 nM, a TGI (MCF7 breast) of 13.1 µM and a GI50 (MDA-MB-231 breast) of 1620 nM. It also gave a TGI (MDA-MB-231 breast) of 4.22 µM, a GI50 (MDA-MB-435) of 1260 nM and a TGI (MDA-MB-435) of 3.48 µM. The GI50 (MOLT-4 leukemia) was 1510 nM, the TGI (MOLT-4 leukemia) was 5.15 µM and the GI50 (NCI-H226 lung) was 3.66 µM. It also gave a TGI (NCI-H226 lung) of 20.1 µM, a GI50 (NCI-H23 lung) of 2180 nM and a TGI (NCI-H23 lung) of 9.56 µM. For the same molecule, the GI50 (NCI-H460 lung) was 1710 nM, the TGI (NCI-H460 lung) was 12.5 µM and the GI50 (NCI-H522 lung) was 2300 nM. It also gave a TGI (NCI-H522 lung) of 10.3 µM, a GI50 (NCI/ADR-RES ovarian) of 3.12 µM and a TGI (NCI/ADR-RES ovarian) of over 100 µM. It also gave a GI50 (OVCAR-3 ovarian) of 855 nM, a TGI (OVCAR-3 ovarian) of 2600 nM and a GI50 (OVCAR-4 ovarian) of 2150 nM. For the same molecule, the TGI (OVCAR-4 ovarian) was 10.5 µM, the GI50 (OVCAR-5 ovarian) was 544 nM and the TGI (OVCAR-5 ovarian) was 3.66 µM. It also gave a GI50 (OVCAR-8 ovarian) of 3.39 µM, a TGI (OVCAR-8 ovarian) of 19 µM and a GI50 (PC-3 prostate) of 1450 nM. It also gave a TGI (PC-3 prostate) of 10.5 µM, a GI50 (RPMI-8226 leukemia) of 2180 nM and a TGI (RPMI-8226 leukemia) of 6.07 µM. For the same molecule, the GI50 (RXF 393 renal) was 1320 nM, the TGI (RXF 393 renal) was 3.84 µM and the GI50 (SF-268 CNS) was 1640 nM. It also gave a TGI (SF-268 CNS) of 12.6 µM, a GI50 (SF-295 CNS) of 1090 nM and a TGI (SF-295 CNS) of 5.43 µM. The GI50 (SF-539 CNS) was 1010 nM, the TGI (SF-539 CNS) was 3.62 µM and the GI50 (SK-MEL-2 melanoma) was 1390 nM. It also gave a TGI (SK-MEL-2 melanoma) of 3.77 µM, a GI50 (SK-MEL-28 melanoma) of 745 nM and a TGI (SK-MEL-28 melanoma) of 5.53 µM. The GI50 (SK-MEL-5 melanoma) was 1550 nM, the TGI (SK-MEL-5 melanoma) was 3 µM and the GI50 (SK-OV-3 ovarian) was 505 nM. For the same molecule, the TGI (SK-OV-3 ovarian) was 4.2 µM, the GI50 (SN12C renal) was 2160 nM and the TGI (SN12C renal) was 12.5 µM. For the same molecule, the GI50 (SNB-19 CNS) was 2200 nM, the TGI (SNB-19 CNS) was 7.07 µM and the GI50 (SNB-75 CNS) was 277 nM. For the same molecule, the TGI (SNB-75 CNS) was 3.41 µM, the GI50 (SR leukemia) was 1770 nM and the TGI (SR leukemia) was 5.56 µM. For the same molecule, the GI50 (SW-620 colon) was 2380 nM, the TGI (SW-620 colon) was 13.1 µM and the GI50 (T-47D breast) was 185 nM. The TGI (T-47D breast) was 1370 nM, the GI50 (TK-10 renal) was 1790 nM and the TGI (TK-10 renal) was 20.8 µM. For the same molecule, the GI50 (U251 CNS) was 2190 nM, the TGI (U251 CNS) was 10.5 µM and the GI50 (UACC-257 melanoma) was 1950 nM. For the same molecule, the TGI (UACC-257 melanoma) was 8.26 µM, the GI50 (UACC-62 melanoma) was 625 nM and the TGI (UACC-62 melanoma) was 2110 nM. The GI50 (UO-31 renal) was 604 nM and the TGI (UO-31 renal) was 3.65 µM.
